From patent publication US12128035B2, “Activating pyruvate kinase R” (Novo Nordisk Health Care AG, priority 2021, dated 2024) come the findings set out here.

The test system of one series is sickle RBCs. In words: Phase 1: Lorrca Osmoscan in SCD patients. Format: in vivo, human. Here is the method: In this study, SAD/MAD cohorts are randomized (3 to 1) to receive Compound 1 or placebo (P). Compound 1 was evaluated first in 4 healthy SAD cohorts and 4 healthy MAD (14-day dosing period) cohorts. Based on the safety, and PK/PD profile from HS, Compound 1 is then evaluated in 1 SCD SAD cohort and 2 SCD MAD cohorts. Specifically, based on the safety and pharmacokinetic/pharmacodynamics (PK/PD) profile in healthy volunteer studies, Compound 1 is evaluated in patients (pts) with SCD, first in a single dose (SD or SAD) cohort and then in multiple-dose (MD or MAD) cohorts (14-day and 12-week). Safety assessments include AEs, vital signs, ECGs and laboratory parameters. PK/PD blood sampling was performed on Day 1 (SAD/MAD) and Day 14 (MAD) and up to 72 h after the last dose and at the end-of-study visit. PD parameters included 2,3-DPG, ATP, and p50 in all cohorts with additional PD studies (including oxygen scan) performed only in the SCD cohorts. PD parameters included 2,3-DPG, ATP, p50, RBC deformability with controlled deoxygenation and reoxygenation (Lorrca® oxygen scan) and varying osmolality (Lorrca® osmoscan)). To maintain study blind, pt identifiers were removed when needed.
Functional evaluation of RBCs was performed using Laser-Optical Rotational Red Cell Analyzer (Lorrca®) technology (RR Mechatronics, Zwaag, The Netherlands). Osmoscan was performed for healthy subjects, and both Oxygenscan and Osmoscan analyses were undertaken for the patients with SCD. In brief, the Oxygenscan allows for the measurement and visualisation of RBC elongation in shear stress in an oxygen gradient, during deoxygenation and re-oxygenation, expressed as the elongation index (EI). […] Evaluated Osmoscan parameters included: EImax; Omin (osmolality at ELmax; hypotonic region), which corresponds to the value of the hypotonic osmolality at which 50% of the cells hemolyse in an osmotic fragility assay and provides information on the initial surface-to-volume ratio of the RBCs; and Ohyper (osmolality corresponding to 50% of the EImax; hypertonic region), which correlates with the initial intracellular viscosity of the cell sample. […]
The effects of a single dose of Compound 1 (700 mg) versus placebo on oxygen scan, oxygen affinity (p50), and osmoscan in SCD patients were evaluated. […] In order to measure the impact of Compound 1 on this critical function, the effect of Compound 1 compared to placebo on the deformability of SCD RBCs across an osmolality gradient was evaluated. […]

The format of series [1] is physicochemical. The source says: [drawing 2] is a selective, orally bioavailable PKR Activating Compound that decreases 2,3-DPG, increases ATP, and has anti-sickling effects in disease models with a wide therapeutic margin relative to preclinical toxicity. Compound 1 is a potent activator of PKR and a multi-modal metabolic modulator of RBCs. Activation of PKR simultaneously reduces 2,3-DPG concentrations, which increases hemoglobin-oxygen affinity and decreases sickling, while also increasing intracellular ATP, which improves RBC health and reduces hemolysis, or RBC death. Compound 1 is a BCS class II compound with poor water solubility and high permeability.

Series [2] concerns H295R adreno-cortical carcinoma cell line. In words: Cell viability (MTT Kit). Format: cell-based. Here is the method:
To assess potential effects on steroidogenesis, Compound 1 was screened for steroid modulation in vitro using the H295R adreno-cortical carcinoma cell line (at 200 to 0.0002 μM) and in an assay to monitor cell viability (MTT Kit). Compound 1 indicated steroid modulation potential (% over vehicle) only at 200 μM, the top concentration tested, with 100% cellular viability at concentrations ≤20 μM (90% viability at 200 μM).

The structures appear in SMILES notation.

For the molecule `O=C([C@H](CO)c1ccccc1)N1CC2=C(C1)CN(S(=O)(=O)c1cnc3c(c1)OCCO3)C2` (single isomer, unassigned) [Compound 1], in the series on sickle RBCs (SCD single 700 mg, Post-dose (24 hours), median (range), pre-dose 0.483 (0.46, 0.57)), the “EImax (Osmoscan)” value is listed as 0.478 (0.46, 0.57). Further, the “Omin (Osmoscan)” value in the series with sickle RBCs (SCD single 700 mg, Post-dose (24 hours), median (range), pre-dose 108 (105, 121)) was 117 (106, 124). Further, the “Ohyper (Osmoscan)” value in the series with sickle RBCs (SCD single 700 mg, Post-dose (24 hours), median (range), pre-dose 380 (371, 399)) is 400 (371, 412). For the same molecule, the “time to return to baseline of Oxygenscan/Osmoscan effects” value in the series on sickle RBCs (SCD, after the single 700 mg dose) is 3 to 7 days. Moreover, the BCS class result in series [1] was “BCS class II”. For the same molecule, the cellular viability in series [2] (200 μM) is given as 90%; in series [2] (concentrations ≤20 μM), 100%.
